# Test results as given in patent publication US20210077570A1, “COMPOSITION COMPRISING A POLYMYXIN AND TEICOPLANIN” (GALENUS G.H. AG, priority 2018, published 2021).
# Where two headings read alike, the source gives them in different places. Positions of bridges follow the written chain, without caps; N, C: chain ends. Non-standard residues stand in square brackets, D forms with d. Residues, ends and D or L forms follow the SMILES beside them. *: point of attachment. Heptanoyl(5-Me) = CCC(C)CCCC(=O)*; Dab = NCC[C@H](N)C(=O)O
# Tests used:
# [1] = test system: A. junii 1397597; assay: Checkerboard analysis MIC/FIC and MBC/FBC, colistin sulphate plus teicoplanin; format: cell-based; conditions: agent alone, CAMHB, inoculum 5*10^5 CFU/ml; for MBC: A. junii; for MIC: A. junii 1397597, 24 h
# Procedure: (§1) Checkerboard analysis to determine minimal inhibitory concentration (MIC)/fractional inhibitory concentration (FIC) and minimal […] (MBC)/fractional […] (FBC) values of colistin sulphate (CS) plus teicoplanin (TP) for 6 Gram-negative strains with a bacterial load 5(1−10)*10^5 CFU/ml in a cation-adjusted Mueller-Hinton broth (CAMHB). • a. Antimicrobial stock solutions were prepared using sterile distilled water • b. CS was added along the ordinate; TP was added along the abscissa to 96 well, flat bottom, polystyrene panels with no treatment. Colistin alone was tested in triplicates. • c. Serial 2-fold dilutions starting with 640 μg/ml CS and 640 μg/ml TP were made; 15 μl volume of the serial dilutions were added for each agent to the appropriate wells; final volume at 30 μl • d. For each agent tested alone an additional 15 μl media was added to the well. 30 μl were added in control wells where none of the agent was tested. The negative control well contains 150 μl media without any additions • e. From an overnight bacterial culture in tryptic soy broth, 100 μl was added to 10 mL of fresh tryptic soy broth. This was then incubated at 37° C. for 1.5 hour at 180 rpm. • f. Bacteria in 120 μl CAMHB were added to each well (end concentration 5(1−10)*10^5 CFU/ml) • g. Plates were incubated at 37° C. in an ambient air incubator for 24 h • h. Turbidity at OD600 is determined with a plate photometer • i. By using a one-time inoculator 3 μl from each well of the 96-well plate were transferred to three blood agar plates. The plates were incubated over night at 37° C. in an ambient air incubator • j. MIC values are defined as lowest concentration which restricts bacterial growth to OD600≤0.1 • k. MBC values were determined by visual reading the lowest concentration which inhibits 99.9% of the growth of bacteria in the wells • l. Determination of the fractional inhibitory concentration (FIC) index and fractional bactericidal concentration (FBC) index and characterization of antimicrobial interactions was assessed • FIC calculation was carried out as: (MIC of drug A, tested in combination)/(MIC of drug A, tested alone)+(MIC of drug B, tested in combination)/(MIC of drug B, tested alone). FBC calculation was carried out just as well • Interactive categories were calculated from checkerboard analysis using MIC results from testing each agent alone and MIC results from the combination wells adjacent to the wells with growth in them […]
# b. Indifference; FIC/FBC>0.5 to <4.0 c. Antagonism; FIC/FBC≥4.0 a. A. junii 1391597 (IHMA), colistin resistant
# [2] = test system: A. nosocomialis 1461911; assay: as above; format: cell-based; conditions: agent alone, CAMHB, inoculum 5*10^5 CFU/ml; for MIC: A. nosocomialis 1461911, 24 h; for MBC: A. nosocomialis
# Procedure: as §1
# b. Indifference; FIC/FBC>0.5 to <4.0 c. Antagonism; FIC/FBC≥4.0 b. A. nosocomialis 1461911 (IHMA), colistin resistant
# [3] = test system: stationary bacteria from biofilm; assay: Elimination of stationary bacteria from biofilm (catheter piece in CAMHB); format: cell-based; conditions: for Elimination of bacteria from biofilm: conclusion, TEC alone in case a Gram-positive strain is tested; for Colony counts, incubated with as compared without a catheter piece / Increase (at least two dilution steps) of MIC, incubated with as compared without a catheter piece: tubes showing no gross turbidity; for Colony counts, incubated with as compared without a catheter piece: after centrifugation, any of the strains tested, TEC mono in case a Gram-positive strain is tested; for Increase (at least two dilution steps) of MIC, incubated with as compared without a catheter piece: MIC of CS, or of TEC in case a Gram-positive strain is tested
# Procedure: To test the elimination of stationary bacteria from biofilm in vitro in CAMHB comparing combination versus monotherapy the same teicoplanin and colistin (serum) concentrations derived from pharmacokinetic studies are used as above.
# Each of the total 16 sets as above is performed in duplicates. Each tube is filled with 5 ml CAMHB and in one of each duplicates a 2 cm long piece of a plastic catheter is inserted. Then all tubes are inoculated with the test strain and incubated aerobically at ambient air at 37° C. overnight (16-24 h). The tubes are removed from the incubator and the appropriate blank, mono or combination drug concentrations to be tested are added to each tube and the tubes are incubated aerobically at ambient air at 37° C. for an additional 24 h. The tubes are removed from the incubator and vortexed for about 10 min. Thereafter the catheter pieces from the corresponding one of the duplicates are removed.
# From tubes showing growth with turbidity the MIC of CS or TEC in case of testing Gram-positive bacteria for the test strains is determined as above and compared to the original MIC. All tubes showing growth or no growth according to turbidity are centrifuged for 10 min at 3000 rpm and about 100 μL of the sediment is transferred onto IsoSensitest agar plate supplemented with 5% blood (Oxoid) and containing concentrations of CS of 4 mg/L, 8 mg/L, 16 mg/L, and 32 mg/L—or TEC of 4 mg/L, 8 mg/L, 16 mg/L in case a Gram-positive strain is tested. After overnight incubation the number of CFUs growing on the plates containing different CS concentrations—or TEC concentrations in case a Gram-positive strain is tested—are counted.
# [4] = test system: A. guillouiae 1285286; assay: Checkerboard analysis MIC/FIC and MBC/FBC, colistin sulphate plus teicoplanin; format: cell-based; conditions: agent alone, CAMHB, inoculum 5*10^5 CFU/ml; for MIC: A. guillouiae 1285286, 24 h; for MBC: A. guillouiae
# Procedure: as §1
# b. Indifference; FIC/FBC>0.5 to <4.0 c. Antagonism; FIC/FBC≥4.0 d. A. guillouiae 1285286 (IHMA), colistin resistant
# [5] = test system: non-multiplying stationary phase bacteria; assay: Elimination of dormant (resistant) bacteria, long term non-multiplying stationary phase model; format: cell-based; conditions: nutrient depleted 5-6 day stationary phase cell suspension in PBS
# Procedure: In order to test the elimination of dormant (resistant) bacteria the long term non-multiplying stationary phase model is used (Hu et al 2010 [18]). Long-term stationary phase cultures of 5 to 6 days are chosen with the test strains as described above. These late stationary phase cultures, may represent a mixed population with a dynamic balance of cell division and cell death. In order to induce the bacterial cells into a non-replicating stage, the cells are washed and incubated with PBS. […] The nutrient depleted 5-6 day stationary phase cell suspension now called non-multiplying stationary phase bacteria is used to test TEC and CS as mono substances or in combinations with the concentrations as mentioned above.
# [6] = test system: S. maltophilia 1237289; assay: Checkerboard analysis MIC/FIC and MBC/FBC, colistin sulphate plus teicoplanin; format: cell-based, Stenotrophomonas maltophilia; conditions: agent alone, CAMHB; for MIC: S. maltophilia 1237289; for MBC: S. maltophilia, second line of Table 2 (1237289 by order)
# Procedure: Checkerboard analysis to determine minimal inhibitory concentration (MIC)/fractional inhibitory concentration (FIC) and minimal […] (MBC)/fractional […] (FBC) values of colistin sulphate (CS) plus teicoplanin (TP) for 6 Gram-negative strains with a bacterial load 5(1−10)*10^5 CFU/ml in a cation-adjusted Mueller-Hinton broth (CAMHB). • a. Antimicrobial stock solutions were prepared using sterile distilled water • b. CS was added along the ordinate; TP was added along the abscissa to 96 well, flat bottom, polystyrene panels with no treatment. Colistin alone was tested in triplicates. • c. Serial 2-fold dilutions starting with 640 μg/ml CS and 640 μg/ml TP were made; 15 μl volume of the serial dilutions were added for each agent to the appropriate wells; final volume at 30 μl • d. For each agent tested alone an additional 15 μl media was added to the well. 30 μl were added in control wells where none of the agent was tested. The negative control well contains 150 μl media without any additions • e. From an overnight bacterial culture in tryptic soy broth, 100 μl was added to 10 mL of fresh tryptic soy broth. This was then incubated at 37° C. for 1.5 hour at 180 rpm. • f. Bacteria in 120 μl CAMHB were added to each well (end concentration 5(1−10)*10^5 CFU/ml) • g. Plates were incubated at 37° C. in an ambient air incubator for 24 h • h. Turbidity at OD600 is determined with a plate photometer • i. By using a one-time inoculator 3 μl from each well of the 96-well plate were transferred to three blood agar plates. The plates were incubated over night at 37° C. in an ambient air incubator • j. MIC values are defined as lowest concentration which restricts bacterial growth to OD600≤0.1 • k. MBC values were determined by visual reading the lowest concentration which inhibits 99.9% of the growth of bacteria in the wells • l. Determination of the fractional inhibitory concentration (FIC) index and fractional bactericidal concentration (FBC) index and characterization of antimicrobial interactions was assessed • FIC calculation was carried out as: (MIC of drug A, tested in combination)/(MIC of drug A, tested alone)+(MIC of drug B, tested in combination)/(MIC of drug B, tested alone). FBC calculation was carried out just as well • Interactive categories were calculated from checkerboard analysis using MIC results from testing each agent alone and MIC results from the combination wells adjacent to the wells with growth in them
# b. Indifference; FIC/FBC>0.5 to <4.0
# c. Antagonism; FIC/FBC≥4.0
# [7] = test system: A. haemolyticus 1655843; assay: as above; format: cell-based; conditions: agent alone, CAMHB, inoculum 5*10^5 CFU/ml; for MBC: A. haemolyticus
# Procedure: as §1, with “By using a one-time inoculator 3 μl from each well of the 96-well plate were transferred to three blood agar plates. The plates were incubated over night at 37° C. in an ambient air incubator • j. MIC values are defined as lowest concentration which restricts bacterial growth to OD600≤0.1 • k. MBC values were determined by visual reading the lowest concentration which inhibits 99.9% of the growth of bacteria in the wells • l.” left out
# [8] = test system: S. maltophilia 1221783; assay: as above; format: cell-based, Stenotrophomonas maltophilia; conditions: agent alone, CAMHB, inoculum 5*10^5 CFU/ml; for MIC: S. maltophilia 1221783, 24 h; for MBC: S. maltophilia, first line of Table 2 (1221783 by order)
# Procedure: as §1
# b. Indifference; FIC/FBC>0.5 to <4.0 c. Antagonism; FIC/FBC≥4.0 […]
# e. Stenotrophomonas maltophilia 1221783 (IHMA), colistin susceptible
# [9] = cited from earlier work
molecule,measurement,setting,value
"CCC(C)CCCC(=O)N[C@@H](CCN)C(=O)N[C@H](C(=O)N[C@@H](CCN)C(=O)N[C@H]1CCNC(=O)[C@H]([C@@H](C)O)NC(=O)[C@H](CCN)NC(=O)[C@H](CCN)NC(=O)[C@H](CC(C)C)NC(=O)[C@@H](CC(C)C)NC(=O)[C@H](CCN)NC1=O)[C@@H](C)O (stereo partly drawn) [CS, colistin sulphate] ({Heptanoyl(5-Me)}-[Dab]T[Dab][Dab][Dab][dL]L[Dab][Dab]T; lactam 4-C)",MBC,"[1]; Acinetobacter junii, 1397597, read-out: MBC",8 mg/L
same,MIC,"[1]; Acinetobacter junii, read-out: MIC",2 mg/L
same,MIC,"[2]; Acinetobacter nosocomialis, 1461911, 24 h, read-out: MIC",≥ 4 mg/L
same,MBC,"[2]; Acinetobacter nosocomialis, 1461911, read-out: MBC",8 mg/L
same,Elimination of bacteria from biofilm,[3],not so well the case
same,"Colony counts, incubated with as compared without a catheter piece",[3],higher colony counts
same,"Increase (at least two dilution steps) of MIC, incubated with as compared without a catheter piece",[3],about one third
same,MIC,[4]; read-out: MIC,2 mg/L
same,MBC,[4]; read-out: MBC,4 mg/L
same,Elimination of non-multiplying stationary phase bacteria,[5],not as mono substances
same,MIC,"[6]; Stenotrophomonas maltophilia, inoculum 5*10^5 CFU/ml, 24 h, read-out: MIC",0.5 mg/L
same,MIC,"[6]; Stenotrophomonas maltophilia, after 48 h growth (values in brackets), read-out: MIC",8 mg/L
same,MBC,"[6]; Stenotrophomonas maltophilia, inoculum 5*10^5 CFU/ml, read-out: MBC",8 mg/L
same,MBC,"[7]; Acinetobacter haemolyticus, 1655843, read-out: MBC",> 16 mg/L
same,MIC,"[8]; Stenotrophomonas maltophilia, 1221783, 24 h, read-out: MIC",0.5 mg/L
same,MBC,"[8]; Stenotrophomonas maltophilia, read-out: MBC",2 mg/L
teicoplanin [TP],"terminal half-life, median (range)",[9]; Antony et al 1991,168 (111-278) h
same,"terminal half-life, mean (±SD)",[9]; Outman et al 1990,157 (±93) h
same,MIC,[1],>64 mg/L
same,MBC,[1],>64 mg/L
same,MIC,[2],>64 mg/L
same,MBC,[2],>64 mg/L
same,Elimination of bacteria from biofilm,[3],not so well the case
same,"Colony counts, incubated with as compared without a catheter piece",[3],higher colony counts
same,"Increase (at least two dilution steps) of MIC, incubated with as compared without a catheter piece",[3],about one third
same,MIC,[4],>64 mg/L
same,MBC,[4],>64 mg/L
same,Elimination of non-multiplying stationary phase bacteria,[5],not as mono substances
same,MIC,"[6]; inoculum 5*10^5 CFU/ml, 24 h",>64 (>64) mg/l
same,MIC,[6]; after 48 h growth (values in brackets),>64 (>64) mg/l
same,MBC,[6]; inoculum 5*10^5 CFU/ml,>64 mg/L
same,MIC,"[7]; A. haemolyticus 1655843, 24 h",>64 mg/L
same,MBC,[7],>64 mg/L
same,MIC,[8],>64 mg/L
same,MBC,[8],>64 mg/L
